Results as given in patent US20030134353A1, “Recombinant dimorphic fungal cell” (Bioteknologisk Institut, priority 2001, published 2003).

Legend:
M. circinelloides = conditions: van Heeswijck et al., 1988; acid pH (3.2 or 4.5); cited from earlier work
pkaR expression = experiment: Northern blot analysis of pkaR expression during aerobic growth after dbcAMP addition; type: cell-based, M. circinelloides; conditions: for Total Counts (pkaR mRNA, background subtracted): aerobic growth
Method: M. circinelloides syn. racemosus R7B (ATCC 90680), a leucine auxotrophic strain of ATCC1216b, was used as a recipient for transformation experiments and for expression studies. Cultures were grown at 28° C. in either YPG (Bartnicki-Garcia and Nickerson, 1962), YNB (Lasker and Borgia, 1980), Vogel's medium supplemented with 1.5 g glutamic acid per litre (Hoekstra, 1996) or SIV medium with 1.5 g glutamic acid per litre in place of L-aspargine (Eslava and Alvarez, 1996). Vogel's and SIV media were supplemented with 2 g casamino acids (Difco, Detroit, Mich., USA) per litre. All media were supplemented with 1 mg/L niacin amide and 1 mg/L thiamine chloride. When appropriate, 20 mg/L leucine was added to allow for the growth of strain R7B. For the analysis of pkaR expression, 5 mM dbcAMP (Sigma) was added to aerobic growing cultures during exponential growth. The BBL GasPak system (Becton Dickinson, Sparks, Md., USA) was used for anaerobic incubation of strains on solid medium. E. coli DH5α was used for DNA manipulations.
RNA isolation was carried out using a FastRNA kit (BIO101 Inc., CA, USA) and extraction with acid Phenol:chloroform (Sigma). For Northern blot analysis, total RNA was loaded onto formaldehyde containing agarose gel, subjected to electrophoresis, transferred to GeneScreen membrane (Du Pont) and hybridised as described (Arnau et al., 1996). Expression levels were meassured using a Cyclone Storage Phosphor System (Packard) and the OptiQuant image analysis software. A linear dynamic range of 5 orders of magnitude with only a 5% standard deviation is possible with the above apparatus. Dilution series of the RNA preparations (typically 20, 10 and 5 μg total RNA per sample) were used to estimate induction levels. Primer extension was carried out using a radioactively end-labelled primer; complementary to position 98-78 downstream of the pkaR ATG start codon. A sequence ladder was obtained using the same primer and pEUKA4-pkaR DNA as template using the Thermo Sequenase Radiolabeled Terminator Cycle Sequencing Kit (USB-Amersham). Probe labelling was performed using Ready-To-Go DNA Labelling Beads (Amersham Pharmacia Biotech). Unincorporated nucleotides were removed using a NICK column (Pharmacia).
In a complementary study, the expression of pkaR was followed during aerobic (filamentous) growth before and after the addition of dbcAMP. This cAMP analogue is membrane permeable and its addition results in PKA activation.

[1] = test system: Mucor circinelloides strain R7B; experiment: Screening of antibiotic sensitivity on YNB agar at pH 6.0; type: cell-based; conditions: YNB agar pH 6.0, 4 days at 28° C.
Method: Spores of Mucor circinelloides strain R7B were plated on to YNB agar pH 6.0 supplemented with leucine (upper left plate in all panels) or the same medium supplemented with 50, 100 or 250 μg/ml of the antibiotic (geneticin, kanamycin, hygromycin B or neomycin) as indicated in each panel. After 4 days at 28° C., plates were examined and photographed.
However, the conditions used for the above screening—especially the acid pH used (3.2 or 4.5)—may result in the inactivation of the antibiotic. Therefore, we performed an initial screening of antibiotic sensitivity using pH 6.0. Under these conditions, M. circinelloides is sensitive to all four antibiotic tested.

CCCCNC(=O)n1c(NC(=O)OC)nc2ccccc21 [benomyl]
Sensitivity of M. circinelloides to antibiotic as reported (M. circinelloides): insensitive

CCCC(=O)Nc1ncnc2c1ncn2[C@@H]1O[C@@H]2COP(=O)(O)O[C@H]2[C@H]1OC(=O)CCC [dbcAMP]
Total Counts (pkaR mRNA, background subtracted) (pkaR expression; 15 min after addition of 5 mM dbcAMP): 951
Total Counts (pkaR mRNA, background subtracted) (pkaR expression; 30 min after addition of 5 mM dbcAMP): 1728
Total Counts (pkaR mRNA, background subtracted) (pkaR expression; 60 min after addition of 5 mM dbcAMP): 2235
Total Counts (pkaR mRNA, background subtracted) (pkaR expression; 120 min after addition of 5 mM dbcAMP): 2392
Total Counts (pkaR mRNA, background subtracted) (pkaR expression; 180 min after addition of 5 mM dbcAMP): 2966
Induction of pkaR expression compared to the level before dbcAMP addition (pkaR expression; after three hours): sevenfold

CN[C@H]1C[C@@H](N)[C@H](O)[C@@H](O[C@@H]2O[C@H](CO)[C@H](O)[C@@H]3OC4(O[C@H]23)O[C@H]([C@@H](N)CO)[C@H](O)[C@H](O)[C@H]4O)[C@@H]1O (some centres unmarked) [hygromycin B]
Growth of M. circinelloides on antibiotic-supplemented plates ([1]; 50 μg/ml antibiotic): tiny colonies
Growth of M. circinelloides on antibiotic-supplemented plates ([1]; 100 μg/ml antibiotic): no growth

CC[C@H]1/C=C/C=C/C[C@@H](C)[C@H](O)[C@@](C)(O)C(=O)[C@@H](C)[C@H](O)[C@@H](C)C(=O)[C@@H](C)[C@H](O)[C@@H](C)/C=C/C(=O)O[C@@H]2[C@H](C)[C@H](CC1)O[C@]1(CC[C@H](C)[C@H](C[C@@H](C)O)O1)[C@H]2C [oligomycin]
Sensitivity of M. circinelloides to antibiotic as reported (M. circinelloides): insensitive

neomycin
Sensitivity of M. circinelloides to antibiotic as reported (M. circinelloides): insensitive
